Drawing on US7723376B2, “2-oxo-heterocyclic compounds and pharmaceutical compositions” (Korea Research Institute of Bioscience and Biotechnology, priority 2003, dated 2010), this text covers IC50 for 38 compounds.

The subject of this assay is PC-3 cells. The experiment in a line: Tumor cell growth inhibition, sulforhodamine B (SRB) staining. The format is cell-based. The settings on record: PC-3 human prostatic carcinoma cells, 48 hrs, absorbance 540 nm, adriamycin as positive control. The method, then: PC-3 cells (ATCC, US), human prostatic carcinoma cell line, were cultured in RMPI 1640 supplemented with 10% fetal bovine serum.
Appropriate concentrations of cells (5×10^4 cells/ml) cultured in RMPI 1640 supplemented with 5% fetal bovine serum were poured into 96-well plate and incubated at 37° C. in 5% CO2 condition. The day after the incubation, PC-3 cells were fixed on Time zero (T0) plate by adding 50 μl/well of 50% trichloroacetic acid and the cell concentration was set to zero point by fixing the cells. In the cells treated with test samples, 50% TCA was added to each wells in 50 ul/well after 48 hrs to fix the cells. The final concentration of adding test compounds were 0.01, 0.03, 0.1, 0.3, 1 μg/ml respectively. Then, each fixed plate was washed, dried and 100 μl/well of 0.4% reaction solution containing sulforhodamine B (SRB) reagent dissolved in 0.1% acetic acid was added thereto to stain the cells. 30 minutes later, the cell was washed with 0.1% acetic acid, dried at room temperature, and 10 mM of TRIS base (pH 10.5) was added thereto to dissolve the staining agent. Finally, the absorbance detected at 540 nm was measured and the value was conversed into percentage comparing with that of control group. IC50 (μg/ml), the concentration of the group required to inhibit the cancer cell growth by 50%, was calculated from the data (AA: IC50's<1, A: IC50's<5, B: IC50's<10 and C: IC50's>10). Also, the inhibiting activity of cell growth was expressed as various symbols in accordance with the potency of examples e.g., AA: closely equivalent (1˜2 times), A: slightly weaker (3˜5 times), B: weaker (5˜10 times), C: very weaker (more than 10 times) than that of adriamycin used as a positive control group.
(In general: The SRB assay estimates cell density from bound dye.)
In general, IC50 refers to the midpoint of a concentration-inhibition curve. Low readings indicate greater potency, high ones weaker potency. Compound `COc1ccc(CN2CC=C(CCC(=O)NO)C2=O)c(OC)c1` [Example 1, 3-[1-(2,4-Dimethoxybenzyl)-2-oxo-2,5-dihydro-1H-pyrrol-3-yl]-N-hydroxypropionamide] came in with an IC50 of less than 5 mg/L.
`O=C(CCC1=CCN(CCc2ccccc2)C1=O)NO` [Example 3, N-hydroxy-3-(2-oxo-1-phenethyl-2,5-dihydro-1H-pyrrol-3-yl)-propionamide] displayed an IC50 of less than 1 mg/L.
Consider `Cc1ccccc1CN1CC=C(CCC(=O)NO)C1=O` [Example 6, N-hydroxy-3-[1-(2-methyl-benzyl)-2-oxo-2,5-dihydro-1H-pyrrol-3-yl]-propionamide], for which the IC50 is less than 10 mg/L.
`Cc1cccc(CN2CC=C(CCC(=O)NO)C2=O)c1` [Example 7, N-hydroxy-3-[1-(3-methyl-benzyl)-2-oxo-2,5-dihydro-1H-pyrrol-3-yl]-propionamide] showed an IC50 of less than 5 mg/L.
For `Cc1ccc(CN2CC=C(CCC(=O)NO)C2=O)cc1` [Example 8, N-hydroxy-3-[1-(4-methyl-benzyl)-2-oxo-2,5-dihydro-1H-pyrrol-3-yl]-propionamide], the IC50 was less than 5 mg/L.
Compound `COc1ccccc1CN1CC=C(CCC(=O)NO)C1=O` [Example 9, N-hydroxy-3-[1-(2-methoxy-benzyl)-2-oxo-2,5-dihydro-1H-pyrrol-3-yl]-propionamide] yielded an IC50 of less than 5 mg/L.
The compound `COc1cccc(CN2CC=C(CCC(=O)NO)C2=O)c1` [Example 10, N-hydroxy-3-[1-(3-methoxy-benzyl)-2-oxo-2,5-dihydro-1H-pyrrol-3-yl]-propionamide] had an IC50 of less than 1 mg/L.
For the compound `COc1ccc(CN2CC=C(CCC(=O)NO)C2=O)cc1` [Example 11, N-hydroxy-3-[1-(4-methoxy-benzyl)-2-oxo-2,5-dihydro-1H-pyrrol-3-yl]-propionamide], the half-maximal inhibitory concentration (IC50) was less than 1 mg/L.
Under `O=C(CCC1=CCN(Cc2ccc(Br)cc2)C1=O)NO` [Example 12, 3-[1-(4-bromo-benzyl)-2-oxo-2,5-dihydro-1H-pyrrol-3-yl]-N-hydroxy-propionamide] stands less than 1 mg/L.
Turning to `O=C(CCC1=CCN(Cc2ccc(Cl)cc2)C1=O)NO` [Example 13, 3-[1-(4-chloro-benzyl)-2-oxo-2,5-dihydro-1H-pyrrol-3-yl]-N-hydroxy-propionamide], the IC50 was less than 5 mg/L.
As to `O=C(CCC1=CCN(Cc2ccc(OCc3ccccc3)cc2)C1=O)NO` [Example 14, 3-[1-(4-benzyloxy-benzyl)-2-oxo-2,5-dihydro-1H-pyrrol-3-yl]-N-hydroxy-propionamide], the IC50 was less than 10 mg/L.
In turn, `COc1ccc(CN2CC=C(CCC(=O)O)C2=O)c(OC)c1` [Example 16, 3-[1-(2,4-dimethoxy-benzyl)-2-oxo-2,5-dihydro-1H-pyrrol-3-yl]-propionic acid] displayed an IC50 greater than 10 mg/L.
On to `O=C(O)CCC1=CCN(Cc2ccccc2)C1=O` [Example 17, 3-(1-benzyl-2-oxo-2,5-dihydro-1H-pyrrol-3-yl)-propionic acid], for which the concentration for half-maximal inhibition (IC50) was greater than 10 mg/L.
The compound `O=C(CCC1=CCN(Cc2ccc(NC(=O)c3ccccc3)cc2)C1=O)NO` [Example 18, N-{4-[3-(2-hydroxycarbamoyl-ethyl)-2-oxo-2,5-dihydro-pyrrole-1-yl-methyl]-phenyl}-benzamide] yielded an IC50 of less than 10 mg/L.
`Cc1ccc(S(=O)(=O)Nc2ccc(CN3CC=C(CCC(=O)NO)C3=O)cc2)cc1` [Example 19, N-hydroxy-3-{2-oxo-1-[4-(toluene-4-sulfonylamino)-benzyl]-2,5-dihydro-1H-pyrrol-3-yl}-propionamide] gave an IC50 of less than 10 mg/L.
For `O=C(CC1=CCN(Cc2ccccc2)C1=O)NO` [Example 20, 2-(1-benzyl-2-oxo-2,5-dihydro-1H-pyrrol-3-yl)-N-hydroxy-acetamide], the IC50 was greater than 10 mg/L.
As to `COc1ccc(CN2CC=C(CC(=O)NO)C2=O)c(OC)c1` [Example 21, 2-[1-(2,4-dimethoxy-benzyl)-2-oxo-2,5-dihydro-1H-pyrrol-3-yl]-N-hydroxy-acetamide], the IC50 was greater than 10 mg/L.
Under `O=C(CC1=CCN(CCc2ccccc2)C1=O)NO` [Example 22, N-hydroxy-2-(2-oxo-1-phenethyl-2,5-dihydro-1H-pyrrol-3-yl)-acetamide] stands greater than 10 mg/L; under `O=C(CC1=CCN(CCCCc2ccccc2)C1=O)NO` [Example 23, N-hydroxy-2-[2-oxo-1-(4-phenyl-butyl)-2,5-dihydro-1H-pyrrol-3-yl]-acetamide], greater than 10 mg/L; under `O=C(CC1=CCN(Cc2ccc(OCc3ccccc3)cc2)C1=O)NO` [Example 24, 2-[1-(4-benzyloxy-benzyl)-2-oxo-2,5-dihydro-1H-pyrrol-3-yl]-N-hydroxy-acetamide], greater than 10 mg/L.
In turn, `O=C(CC1CCN(Cc2ccccc2)C1=O)NO` (centres unmarked) [Example 25, 2-(1-benzyl-2-oxo-pyrrolidin-3-yl)-N-hydroxy-acetamide] returned an IC50 greater than 10 mg/L.
Regarding `COc1ccc(CN2CCC(CC(=O)NO)C2=O)c(OC)c1` (centres unmarked) [Example 26, 2-[1-(2,4-dimethoxy-benzyl)-2-oxo-pyrrolidin-3-yl]-N-hydroxy-acetamide], the IC50 is greater than 10 mg/L.
In the case of `O=C(CC1CCN(CCc2ccccc2)C1=O)NO` (centres unmarked) [Example 27, N-hydroxy-2-(2-oxo-1-phenethyl-pyrrolidin-3-yl)-acetamide], the IC50 is greater than 10 mg/L.
Under `O=C(CCC1=CCN(CCc2ccccc2F)C1=O)NO` [Example 28, 3-{1-[2-(2-fluoro-phenyl)-ethyl]-2-oxo-2,5-dihydro-1H-pyrrol-3-yl}-N-hydroxy-propionamide] stands less than 5 mg/L.
In the case of `O=C(CCC1=CCN(CCc2cccc(F)c2)C1=O)NO` [Example 29, 3-{1-[2-(3-fluoro-phenyl)-ethyl]-2-oxo-2,5-dihydro-1H-pyrrol-3-yl}-N-hydroxy-propionamide], the IC50 was less than 5 mg/L.
`O=C(CCC1=CCN(CCc2ccc(F)cc2)C1=O)NO` [Example 30, 3-{1-[2-(4-fluoro-phenyl)-ethyl]-2-oxo-2,5-dihydro-1H-pyrrol-3-yl}-N-hydroxy-propionamide] showed an IC50 of less than 5 mg/L.
Compound `O=C(CCC1=CCN(CCc2ccccc2[N+](=O)[O-])C1=O)NO` [Example 31, N-hydroxy-3-{1-[2-(2-nitro-phenyl)-ethyl]-2-oxo-2,5-dihydro-1H-pyrrol-3-yl}-propionamide] yielded an IC50 of less than 5 mg/L.
Under `O=C(CCC1=CCN(CCc2cccc([N+](=O)[O-])c2)C1=O)NO` [Example 32, N-hydroxy-3-{1-[2-(3-nitro-phenyl)-ethyl]-2-oxo-2,5-dihydro-1H-pyrrol-3-yl}-propionamide] stands less than 5 mg/L; under `O=C(CCC1=CCN(CCc2ccc([N+](=O)[O-])cc2)C1=O)NO` [Example 33, N-hydroxy-3-{1-[2-(4-nitro-phenyl)-ethyl]-2-oxo-2,5-dihydro-1H-pyrrol-3-yl}-propionamide], less than 5 mg/L.
Under `O=C(CCC1=CCN(CCc2ccccc2Br)C1=O)NO` [Example 34, 3-{1-[2-(2-bromo-phenyl)-ethyl]-2-oxo-2,5-dihydro-1H-pyrrol-3-yl}-N-hydroxy-propionamide] stands less than 5 mg/L; under `O=C(CCC1=CCN(CCc2ccc(Br)cc2)C1=O)NO` [Example 35, 3-{1-[2-(4-bromo-phenyl)-ethyl]-2-oxo-2,5-dihydro-1H-pyrrol-3-yl}-N-hydroxy-propionamide], less than 5 mg/L.
Under `COc1ccccc1CCN1CC=C(CCC(=O)NO)C1=O` [Example 36, N-hydroxy-3-{1-[2-(2-methoxy-phenyl)-ethyl]-2-oxo-2,5-dihydro-1H-pyrrol-3-yl}-propionamide] stands less than 5 mg/L.
Consider `COc1cccc(CCN2CC=C(CCC(=O)NO)C2=O)c1` [Example 37, N-hydroxy-3-{1-[2-(3-methoxy-phenyl)-ethyl]-2-oxo-2,5-dihydro-1H-pyrrol-3-yl}-propionamide], for which the half-inhibitory concentration (IC50) is less than 5 mg/L.
The compound `COc1ccc(CCN2CC=C(CCC(=O)NO)C2=O)cc1` [Example 38, N-hydroxy-3-{1-[2-(4-methoxy-phenyl)-ethyl]-2-oxo-2,5-dihydro-1H-pyrrol-3-yl}-propionamide] had an IC50 of less than 5 mg/L.
Under `Cc1ccc(CCN2CC=C(CCC(=O)NO)C2=O)cc1` [Example 39, N-hydroxy-3-[2-oxo-1-(2-p-tolyl-ethyl)-2,5-dihydro-1H-pyrrol-3-yl]-propionamide] stands less than 5 mg/L.
In the case of `Cc1ccc(CCCN2CC=C(CCC(=O)NO)C2=O)cc1` [Example 40, N-hydroxy-3-[2-oxo-1-(3-p-tolyl-propyl)-2,5-dihydro-1H-pyrrol-3-yl]-propionamide], the IC50 is less than 5 mg/L.
Regarding `Cc1ccccc1CCCN1CC=C(CCC(=O)NO)C1=O` [Example 41, N-hydroxy-3-[2-oxo-1-(3-o-tolyl-propyl)-2,5-dihydro-1H-pyrrol-3-yl]-propionamide], the IC50 is less than 10 mg/L.
On to `Cc1cccc(CCCN2CC=C(CCC(=O)NO)C2=O)c1` [Example 42, N-hydroxy-3-[2-oxo-1-(3-m-tolyl-propyl)-2,5-dihydro-1H-pyrrol-3-yl]-propionamide], for which the IC50 is less than 1 mg/L.
